Patent publication US10023570B2 (Array BioPharma, Inc., priority 2015, dated 2018)
Structures can show the parent of a compound that is named as a salt. Where two headings read alike, the source gives them in different places.

Columns and labels:
[1] = target: N-terminal GST tagged recombinant human RET cytoplasmic domain (aa 658-end), wild type RET kinase (Homo sapiens (Human), UniProt P07949); test: RET Enzyme Assay (HTRF KinEASE-TK), wild type RET; assay type: biochemical
[2] = target: Kif5b-RET fusion protein in HEK-293 cells (Homo sapiens, UniProt P07949); test: cell-based
[3] = target: human KDR protein in HEK-293 cells (Homo sapiens (Human), UniProt P35968); test: KDR Cell Assay (phospho-KDR in HEK-293 cells expressing inducible KDR); assay type: cell-based; settings: pKDR Cell HEK 10% FBS IC50, HEK-293 cells expressing inducible KDR, VEGF stimulated
Method in brief: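 HEK-293 cells with inducible human KDR were treated with compound for 1 h in DMEM (0.25% DMSO final), then lysed. Phospho-KDR was quantified by Meso Scale immunoassay, expressed as percent of control, and IC50 taken where a 4-parameter logistic fit crossed 50 POC.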

[4] = HEK-293 cells expressing Kif5b-RET, phospho-RET(Tyr1062), read-out: KIF5B-RET pTYR1062 Cell IC50
[5] = HEK-293 cells expressing Kif5b-RET, read-out: KIF5B-RET pTYR1062 Cell IC50

Sequence of human KDR protein in HEK-293 cells (P35968 20-1356): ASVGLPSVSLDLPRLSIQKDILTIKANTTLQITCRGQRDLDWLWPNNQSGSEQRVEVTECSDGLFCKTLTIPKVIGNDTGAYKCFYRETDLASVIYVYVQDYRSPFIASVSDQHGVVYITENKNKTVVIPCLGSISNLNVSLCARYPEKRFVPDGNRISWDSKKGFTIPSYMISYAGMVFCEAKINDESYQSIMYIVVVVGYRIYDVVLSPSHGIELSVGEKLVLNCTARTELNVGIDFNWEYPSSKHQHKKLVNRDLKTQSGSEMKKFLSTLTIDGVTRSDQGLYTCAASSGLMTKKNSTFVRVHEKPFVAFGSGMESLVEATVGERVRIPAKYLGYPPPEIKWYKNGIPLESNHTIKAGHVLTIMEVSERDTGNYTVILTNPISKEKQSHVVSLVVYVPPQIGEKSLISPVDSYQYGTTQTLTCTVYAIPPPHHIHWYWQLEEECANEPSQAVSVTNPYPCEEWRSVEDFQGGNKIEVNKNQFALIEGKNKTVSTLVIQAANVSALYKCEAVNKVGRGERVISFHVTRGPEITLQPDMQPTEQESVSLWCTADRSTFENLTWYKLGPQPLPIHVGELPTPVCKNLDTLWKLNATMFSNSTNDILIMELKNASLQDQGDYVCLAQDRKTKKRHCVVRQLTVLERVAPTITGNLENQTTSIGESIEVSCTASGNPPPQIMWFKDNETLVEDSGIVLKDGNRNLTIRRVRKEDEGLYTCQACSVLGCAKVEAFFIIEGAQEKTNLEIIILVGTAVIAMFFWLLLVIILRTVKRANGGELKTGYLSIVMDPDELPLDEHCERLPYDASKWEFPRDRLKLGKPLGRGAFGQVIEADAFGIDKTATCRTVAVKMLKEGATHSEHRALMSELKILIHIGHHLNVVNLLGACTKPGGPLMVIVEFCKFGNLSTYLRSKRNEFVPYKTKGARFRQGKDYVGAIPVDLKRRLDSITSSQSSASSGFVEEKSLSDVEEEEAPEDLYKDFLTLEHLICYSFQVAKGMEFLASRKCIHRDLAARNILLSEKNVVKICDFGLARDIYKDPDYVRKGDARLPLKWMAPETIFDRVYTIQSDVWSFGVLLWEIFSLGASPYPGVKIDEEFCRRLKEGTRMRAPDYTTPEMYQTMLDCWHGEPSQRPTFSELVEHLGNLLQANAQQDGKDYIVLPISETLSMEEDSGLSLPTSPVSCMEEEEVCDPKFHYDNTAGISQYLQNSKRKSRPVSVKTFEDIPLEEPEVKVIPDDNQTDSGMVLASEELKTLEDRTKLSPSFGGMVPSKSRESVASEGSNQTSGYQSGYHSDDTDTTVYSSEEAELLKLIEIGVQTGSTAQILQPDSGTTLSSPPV
Sequence of N-terminal GST tagged recombinant human RET cytoplasmic domain (aa 658-end), wild type RET kinase (P07949 658-1114): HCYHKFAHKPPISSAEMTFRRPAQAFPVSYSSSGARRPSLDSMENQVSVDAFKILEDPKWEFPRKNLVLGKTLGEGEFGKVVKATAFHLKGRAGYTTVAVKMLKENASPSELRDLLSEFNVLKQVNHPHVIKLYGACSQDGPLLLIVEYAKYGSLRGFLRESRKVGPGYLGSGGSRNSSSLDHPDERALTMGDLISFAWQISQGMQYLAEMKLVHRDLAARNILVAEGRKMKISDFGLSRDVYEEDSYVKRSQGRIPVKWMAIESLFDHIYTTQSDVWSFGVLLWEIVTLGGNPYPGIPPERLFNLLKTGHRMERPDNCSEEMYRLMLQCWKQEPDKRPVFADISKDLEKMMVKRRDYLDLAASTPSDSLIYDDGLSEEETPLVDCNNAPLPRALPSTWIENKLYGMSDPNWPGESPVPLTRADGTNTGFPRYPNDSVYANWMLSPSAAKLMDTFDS
Sequence of Kif5b-RET fusion protein in HEK-293 cells (P07949 29-1114 limits assumed): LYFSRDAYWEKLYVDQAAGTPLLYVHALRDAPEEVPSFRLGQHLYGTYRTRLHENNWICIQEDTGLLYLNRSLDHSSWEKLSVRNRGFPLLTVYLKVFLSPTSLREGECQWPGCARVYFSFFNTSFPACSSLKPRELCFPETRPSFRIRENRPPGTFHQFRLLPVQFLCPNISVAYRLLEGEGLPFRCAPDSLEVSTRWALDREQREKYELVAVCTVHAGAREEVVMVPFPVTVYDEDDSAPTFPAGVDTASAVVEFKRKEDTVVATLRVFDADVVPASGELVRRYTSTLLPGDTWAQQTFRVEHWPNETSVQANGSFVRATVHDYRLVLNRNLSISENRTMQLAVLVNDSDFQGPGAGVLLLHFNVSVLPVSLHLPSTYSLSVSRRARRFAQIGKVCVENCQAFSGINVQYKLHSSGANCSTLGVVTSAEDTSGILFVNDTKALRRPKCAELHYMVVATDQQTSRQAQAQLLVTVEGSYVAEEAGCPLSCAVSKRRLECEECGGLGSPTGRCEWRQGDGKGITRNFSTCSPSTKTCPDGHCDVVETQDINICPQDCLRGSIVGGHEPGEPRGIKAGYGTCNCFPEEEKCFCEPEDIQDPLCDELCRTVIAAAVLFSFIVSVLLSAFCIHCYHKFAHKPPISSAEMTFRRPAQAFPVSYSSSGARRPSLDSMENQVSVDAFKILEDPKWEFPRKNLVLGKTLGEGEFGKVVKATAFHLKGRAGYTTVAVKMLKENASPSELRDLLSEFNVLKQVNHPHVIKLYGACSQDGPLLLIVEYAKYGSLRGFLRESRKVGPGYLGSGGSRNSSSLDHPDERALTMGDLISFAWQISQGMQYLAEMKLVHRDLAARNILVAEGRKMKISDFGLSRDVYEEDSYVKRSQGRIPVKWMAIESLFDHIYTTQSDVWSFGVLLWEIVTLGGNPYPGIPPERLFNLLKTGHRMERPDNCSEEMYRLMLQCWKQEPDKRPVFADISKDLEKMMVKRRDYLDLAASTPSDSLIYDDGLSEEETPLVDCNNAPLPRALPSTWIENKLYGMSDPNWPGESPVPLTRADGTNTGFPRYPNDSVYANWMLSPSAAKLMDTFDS

| IC50 [2, 4] | IC50 ([3]; 10% FBS) | IC50 ([1]; wild type RET, 1 mM ATP) | IC50 [2, 5] | SMILES | IC50 [1] | IC50 [2] | IC50 [3] | IC50 ([2]; read-out: KIF5B-RET pTYR1062 Cell IC50) |
| --- | --- | --- | --- | --- | --- | --- | --- | --- |
| 5.1 nM | 1510 nM | 7.4 nM | – | COC(CNC(=O)C1CCN(c2ccc(-c3cc(-c4cnn(C)c4)cn4ncc(C#N)c34)cn2)CC1)C(F)(F)F (stereo not drawn) [Example 235, 1-(5-(3-cyano-6-(1-methyl-1H-pyrazol-4-yl)pyrazolo[1,5-a]pyridin-4-yl)pyridin-2-yl)-N-(3,3,3-trifluoro-2-methoxypropyl) piperidine-4-carboxamide] | – | – | – | – |
| 9.7 nM | 614 nM | 16.8 nM | – | CC(C)OC(=O)NC1CCN(c2ccc(-c3cc(-c4cnn(C)c4)cn4ncc(C#N)c34)cn2)CC1 [Example 188, Isopropyl (1-(5-(3-cyano-6-(1-methyl-1H-pyrazol-4-yl)pyrazolo[1,5-a]pyridin-4-yl)pyridin-2-yl)piperidin-4-yl)carbamate] | – | – | – | – |
| – | – | 5.7 nM | 4.1 nM | N#Cc1cnn2cc(-c3cn[nH]c3)cc(-c3ccc(N4CCN(Cc5ccccc5)CC4)nc3)c12 [Example 591, 4-(6-(4-benzylpiperazin-1-yl)pyridin-3-yl)-6-(1H-pyrazol-4-yl)pyrazolo[1,5-a]pyridine-3-carbonitrile] | – | – | 1490 nM | – |
| 15.8 nM | 444 nM | 11.9 nM | – | COCC(=O)NC1CCN(c2ccc(-c3cc(-c4cnn(C)c4)cn4ncc(C#N)c34)cn2)CC1 [Example 183, N-(1-(5-(3-cyano-6-(1-methyl-1H-pyrazol-4-yl)pyrazolo[1,5-a]pyridin-4-yl)pyridin-2-yl)piperidin-4-yl)-2-methoxyacetamide] | – | – | – | – |
| 108 nM | 749 nM | 23.9 nM | – | C[C@@H](O)C(=O)N1CCN(c2ccc(-c3cc(-c4cnn(C)c4)cn4ncc(C#N)c34)cn2)CC1 [Example 32, (R)-4-(6-(4-(2-hydroxypropanoyl)piperazin-1-yl)pyridin-3-yl)-6-(1-methyl-1H-pyrazol-4-yl)pyrazolo[1,5-a]pyridine-3-carbonitrile] | – | – | – | – |
| – | – | 8.5 nM | 3.6 nM | CC(C)OCCN1CCN(c2ccc(-c3cc(-c4cnn(C)c4)cn4ncc(C#N)c34)cn2)CC1 [Example 392, 4-(6-(4-(2-isopropoxyethyl)piperazin-1-yl)pyridin-3-yl)-6-(1-methyl-1H-pyrazol-4-yl)pyrazolo[1,5-a]pyridin-3-carbonitrile] | – | – | 765 nM | – |
| 45.5 nM | 630 nM | 10.9 nM | – | Cn1cc(-c2cc(-c3ccc(N4CCC(O)CC4)nc3)c3c(C#N)cnn3c2)cn1 [Example 196, 4-(6-(4-hydroxypiperidin-1-yl)pyridin-3-yl)-6-(1-methyl-1H-pyrazol-4-yl)pyrazolo[1,5-a]pyridine-3-carbonitrile] | – | – | – | – |
| 25.4 nM | 911 nM | 14.1 nM | – | CC(C)C(=O)N1CCN(c2ccc(-c3cc(-c4cnn(C)c4)cn4ncc(C#N)c34)cn2)CC1 [Example 66, 4-(6-(4-isobutyrylpiperazin-1-yl)pyridin-3-yl)-6-(1-methyl-1H-pyrazol-4-yl)pyrazolo[1,5-a]pyridine-3-carbonitrile] | – | – | – | – |
| 8.2 nM | 527 nM | 11.5 nM | – | CCC(C)(O)CC(=O)N1CCN(c2ccc(-c3cc(-c4cnn(C)c4)cn4ncc(C#N)c34)cn2)CC1 (stereo not drawn) [Example 63, 4-(6-(4-(3-hydroxy-3-methylpentanoyl)piperazin-1-yl)pyridin-3-yl)-6-(1-methyl-1H-pyrazol-4-yl)pyrazolo[1,5-a]pyridine-3-carbonitrile] | – | – | – | – |
| 7.1 nM | 1150 nM | 10.7 nM | – | Cn1cc(-c2cc(-c3ccc(N4CCC(C)(NC(=O)OC(C)(C)C)CC4)nc3)c3c(C#N)cnn3c2)cn1 [Example 201, tert-butyl (1-(5-(3-cyano-6-(1-methyl-1H-pyrazol-4-yl)pyrazolo[1,5-a]pyridin-4-yl)pyridin-2-yl)-4-methylpiperidin-4-yl)carbamate] | – | – | – | – |
| 13 nM | 1600 nM | 3.6 nM | – | CCN(CC)C(=O)N1CCN(c2ccc(-c3cc(-c4cnn(C)c4)cn4ncc(C#N)c34)cn2)CC1 [Example 98, 4-(5-(3-cyano-6-(1-methyl-1H-pyrazol-4-yl)pyrazolo[1,5-a]pyridin-4-yl)pyridin-2-yl)-N,N-diethylpiperazine-1-carboxamide] | – | – | – | – |
| – | – | 48.1 nM | 109 nM | CCc1nn(C)cc1-c1cc(-c2ccc(N3CCN(Cc4ccccc4)CC3)nc2)c2c(C#N)cnn2c1 [Example 610, 4-(6-(4-benzylpiperazin-1-yl)pyridin-3-yl)-6-(3-ethyl-1-methyl-1H-pyrazol-4-yl)pyrazolo[1,5-a]pyridine-3-carbonitrile] | – | – | 4440 nM | – |
| 27.3 nM | 511 nM | 13.6 nM | – | C[C@@H](NC(=O)C1CCN(c2ccc(-c3cc(-c4cnn(C)c4)cn4ncc(C#N)c34)cn2)CC1)C(F)(F)F [Example 233, (R)-1-(5-(3-cyano-6-(1-methyl-1H-pyrazol-4-yl)pyrazolo[1,5-a]pyridin-4-yl)pyridin-2-yl)-N-(1,1,1-trifluoropropan-2-yl)piperidine-4-carboxamide] | – | – | – | – |
| 10 nM | 505 nM | 12.5 nM | – | CCC1(C(=O)NCC(C)(C)O)CCN(c2ccc(-c3cc(-c4cnn(C)c4)cn4ncc(C#N)c34)cn2)CC1 [Example 258, 1-(5-(3-cyano-6-(1-methyl-1H-pyrazol-4-yl)pyrazolo[1,5-a]pyridin-4-yl)pyridin-2-yl)-4-ethyl-N-(2-hydroxy-2-methylpropyl) piperidine-4-carboxamide] | – | – | – | – |
| 15.3 nM | 928 nM | 7.6 nM | – | Cn1cc(-c2cc(-c3ccc(N4CCC(NC(=O)OC(C)(C)C)CC4)nc3)c3c(C#N)cnn3c2)cn1 [Example 176, tert-butyl (1-(5-(3-cyano-6-(1-methyl-1H-pyrazol-4-yl)pyrazolo[1,5-a]pyridin-4-yl)pyridin-2-yl)piperidin-4-yl)carbamate] | – | – | – | – |
| 1.7 nM | 147 nM | 4.3 nM | – | CC(C)CNC(=O)N1CCN(c2ccc(-c3cc(-c4cnn(C)c4)cn4ncc(C#N)c34)cn2)CC1 [Example 133, 4-(5-(3-cyano-6-(1-methyl-1H-pyrazol-4-yl)pyrazolo[1,5-a]pyridin-4-yl)pyridin-2-yl)-N-isobutylpiperazine-1-carboxamide] | – | – | – | – |
| 46.7 nM | 1060 nM | 19.8 nM | – | Cn1cc(-c2cc(-c3ccc(N4CCN(CC(O)C(C)(C)C)CC4)nc3)c3c(C#N)cnn3c2)cn1 (stereo not drawn) [Example 148, 4-(6-(4-(2-hydroxy-3,3-dimethylbutyl)piperazin-1-yl)pyridin-3-yl)-6-(1-methyl-1H-pyrazol-4-yl)pyrazolo[1,5-a]pyridine-3-carbonitrile] | – | – | – | – |
| 66.6 nM | 1480 nM | 12.4 nM | – | CC(C)[C@H](O)C(=O)N1CCN(c2ccc(-c3cc(-c4cnn(C)c4)cn4ncc(C#N)c34)cn2)CC1 [Example 54, (S)-4-(6-(4-(2-hydroxy-3-methylbutanoyl)piperazin-1-yl)pyridin-3-yl)-6-(1-methyl-1H-pyrazol-4-yl)pyrazolo[1,5-a]pyridine-3-carbonitrile] | – | – | – | – |

| SMILES | IC50 [2, 4] | IC50 ([3]; 10% FBS) | IC50 ([1]; wild type RET, 1 mM ATP) | IC50 [2, 5] | IC50 [1] | IC50 [2] | IC50 [3] | IC50 ([2]; read-out: KIF5B-RET pTYR1062 Cell IC50) |
| --- | --- | --- | --- | --- | --- | --- | --- | --- |
| Cn1cc(-c2cc(-c3ccc(N4CCC(C)(N)CC4)nc3)c3c(C#N)cnn3c2)cn1 [Example 202, 4-(6-(4-amino-4-methylpiperidin-1-yl)pyridin-3-yl)-6-(1-methyl-1H-pyrazol-4-yl)pyrazolo[1,5-a]pyridine-3-carbonitrile dihydrochloride] | 110 nM | 992 nM | – | – | 41.7 nM | – | – | – |
| CC(C)n1cc(-c2cc(-c3ccc(N4CCN(Cc5ccccc5)CC4)nc3)c3c(C#N)cnn3c2)cn1 [Example 611, 4-(6-(4-benzylpiperazin-1-yl)pyridin-3-yl)-6-(1-isopropyl-1H-pyrazol-4-yl)pyrazolo[1,5-a]pyridine-3-carbonitrile] | – | – | 11.9 nM | – | – | 2.5 nM | 298 nM | – |
| COCCN(C)C(=O)N1CCN(c2ccc(-c3cc(-c4cnn(C)c4)cn4ncc(C#N)c34)cn2)CC1 [Example 130, 4-(5-(3-cyano-6-(1-methyl-1H-pyrazol-4-yl)pyrazolo[1,5-a]pyridin-4-yl)pyridin-2-yl)-N-(2-methoxyethyl)-N-methylpiperazine-1-carboxamide 2,2,2-trifluoroacetate] | – | 2250 nM | 20.8 nM | – | – | – | – | 33 nM |
| Cn1cc(-c2cc(-c3ccc(N4CCC(C(=O)NOC(C)(C)C)CC4)nc3)c3c(C#N)cnn3c2)cn1 [Example 565, N-(tert-butoxy)-1-(5-(3-cyano-6-(1-methyl-1H-pyrazol-4-yl)pyrazolo[1,5-a]pyridin-4-yl)pyridin-2-yl)piperidine-4-carboxamide] | – | – | 6.4 nM | 10.3 nM | – | – | 540 nM | – |
| COc1ccc(CN2CCN(c3ccc(-c4cc(-c5cnn(C)c5)cn5ncc(C#N)c45)cn3)CC2)nc1 [Example 458, 4-(6-(4-((5-methoxypyridin-2-yl)methyl)piperazin-1-yl)pyridin-3-yl)-6-(1-methyl-1H-pyrazol-4-yl)pyrazolo[1,5-a]pyridine-3-carbonitrile] | – | – | 6.9 nM | – | – | 2.4 nM | 324 nM | – |
| Cn1cc(-c2cc(-c3ccc(N4CCC(O)(C(F)(F)F)CC4)nc3)c3c(C#N)cnn3c2)cn1 [Example 510, 4-(6-(4-hydroxy-4-(trifluoromethyl)piperidin-1-yl)pyridin-3-yl)-6-(1-methyl-1H-pyrazol-4-yl)pyrazolo[1,5-a]pyridine-3-carbonitrile 2,2,2-trifluoroacetate] | – | – | – | 9.6 nM | 6.7 nM | – | 323 nM | – |
